Measured values published in the supplement of paper PMC10307832.

What was measured:
Test in all cases: relative viability (nuclei count vs DMSO), 5 days (fraction); higher = more cells survive
[1] = compound: OCc1c[nH]c2ccccc12 [Indole-3-carbinol] + CC(=O)c1c(C)c2cnc(Nc3ccc(N4CCNCC4)cn3)nc2n(C2CCCC2)c1=O [Palbociclib] (partner 0.5 µM)
Summary of the method: (§1)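 Lung cancer cell lines were pin-tool dosed in 1536-well plates on the day after seeding, with either a lone drug or a fixed anchor-drug dose plus five library-drug doses (not always all listed) in √10 steps. Nuclei were counted on 4× images after 5 days. Relative viability is the ratio of treated-well to vehicle-well nuclei counts, with each value a median of duplicate plates.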

[2] = compound: OCc1c[nH]c2ccccc12 [Indole-3-carbinol] + Cc1cc(Nc2cc(N3CCN(C)CC3)nc(Sc3ccc(NC(=O)C4CC4)cc3)n2)n[nH]1 [Tozasertib] (partner 0.1 µM)
Summary of the method: as §1

[3] = compound: OCc1c[nH]c2ccccc12 [Indole-3-carbinol] + Cc1nc(Nc2ncc(C(=O)Nc3c(C)cccc3Cl)s2)cc(N2CCN(CCO)CC2)n1 [Dasatinib] (partner 0.075 µM)
Summary of the method: as §1

[4] = compound: OCc1c[nH]c2ccccc12 [Indole-3-carbinol] + CC(=O)Nc1cccc(-n2c(=O)n(C3CC3)c(=O)c3c(Nc4ccc(I)cc4F)n(C)c(=O)c(C)c32)c1 [Trametinib] (partner 0.02 µM)
Summary of the method: as §1

[5] = compound: OCc1c[nH]c2ccccc12 [Indole-3-carbinol] + NC(=O)Nc1cc(-c2cccc(F)c2)sc1C(=O)N[C@H]1CCCNC1 [AZD7762] (partner 0.2 µM)
Summary of the method: as §1

Cell Line | relative viability ([1]; first compound 0.253 µM) | relative viability ([1]; first compound 0.8 µM) | relative viability ([1]; first compound 2.53 µM) | relative viability ([1]; first compound 8 µM) | relative viability ([2]; first compound 0.253 µM) | relative viability ([2]; first compound 0.8 µM) | relative viability ([2]; first compound 2.53 µM) | relative viability ([2]; first compound 8 µM) | relative viability ([3]; first compound 0.253 µM) | relative viability ([3]; first compound 0.8 µM) | relative viability ([3]; first compound 2.53 µM) | relative viability ([3]; first compound 8 µM) | relative viability ([4]; first compound 0.253 µM) | relative viability ([4]; first compound 0.8 µM) | relative viability ([4]; first compound 2.53 µM) | relative viability ([4]; first compound 8 µM) | relative viability ([5]; first compound 0.253 µM) | relative viability ([5]; first compound 0.8 µM) | relative viability ([5]; first compound 2.53 µM) | relative viability ([5]; first compound 8 µM)
NCI-H2347 | 0.426 | 0.471 | 0.419 | 0.407 | 0.614 | 0.54 | 0.571 | 0.538 | 0.303 | 0.26 | 0.313 | 0.344 | 0.422 | 0.276 | 0.296 | 0.29 | 0.936 | 0.676 | 0.702 | 0.765
LXF-289 | 0.58 | 0.611 | 0.609 | 0.56 | 0.228 | 0.21 | 0.289 | 0.199 | 0.256 | 0.229 | 0.258 | 0.203 | 0.678 | 0.693 | 0.651 | 0.656 | 1.25 | 1.1 | 1.13 | 1.03
BEN | 0.495 | 0.445 | 0.512 | 0.485 | 0.463 | – | 0.479 | 0.554 | 0.334 | 0.351 | 0.318 | 0.294 | 0.995 | 1.14 | 1.03 | 0.936 | 0.635 | 0.706 | 0.732 | 0.784
NCI-H1355 | 0.401 | 0.379 | 0.43 | 0.392 | 0.525 | 0.619 | 0.551 | 0.564 | 0.677 | 0.886 | 0.672 | 0.737 | 0.43 | 0.343 | 0.386 | 0.415 | 0.859 | 0.806 | 0.799 | 0.778
NCI-H1793 | 0.346 | 0.281 | 0.298 | 0.315 | 0.332 | 0.389 | 0.339 | 0.395 | 0.433 | 0.422 | 0.435 | 0.394 | 0.403 | 0.442 | 0.455 | 0.481 | 0.424 | 0.468 | 0.507 | 0.455
NCI-H838 | 0.191 | 0.203 | 0.231 | 0.223 | 0.265 | 0.308 | 0.301 | 0.286 | 0.27 | 0.31 | 0.297 | 0.295 | 0.593 | 0.499 | 0.525 | 0.495 | 1.05 | 0.84 | 0.975 | 0.883
EMC-BAC-2 | 0.507 | 0.519 | 0.507 | 0.489 | 0.267 | 0.309 | 0.25 | 0.259 | 0.329 | 0.307 | 0.337 | 0.312 | 0.789 | 0.918 | 0.879 | 0.849 | 1.15 | 1.17 | 1.05 | 1.11
LU99A | 0.397 | 0.423 | 0.385 | 0.381 | 0.224 | 0.317 | 0.315 | 0.257 | 0.504 | 0.587 | 0.515 | 0.485 | 0.5 | 0.517 | 0.521 | 0.545 | 0.379 | 0.392 | 0.434 | 0.329
